Laboratory results published in patent US10342804B2, “Steroid compound for use in the treatment of hepatic encephalopathy” (Umecrine Cognition AB, priority 2014, dated 2019).
Read-outs that look alike come from different tables or passages of the source.

Key:
hyperammonemic rats = test: Motor coordination in the beam walking test, chronic hyperammonemia model (Example 4); type: in vivo, rat; conditions: 20 mg/kg s.c. once daily, 3rd-4th week of treatment
Text: In this study an animal model of chronic hyperammonemia was used that reproduces many of the cognitive and motor alterations present in hepatic encephalopathy. Rats were fed with ammonia in their food and after two weeks with ammonia enriched food they developed symptoms of hepatic encephalopathy. The beam walking test was made during the 3rd and 4th week of 3α-ethynyl-3β-hydroxyandrostan-17-one oxime treatment while the Morris Water maze test was made during 4th-5th week of 3α-ethynyl-3β-hydroxyandrostan-17-one oxime treatment and the Radial maze test was made during 6th-7th week of 3α-ethynyl-3β-hydroxyandrostan-17-one oxime treatment.
The study was divided into two series with animals (male Wistar rats), each series included the following groups; Controls treated with vehicle (CV, n=8 per series), Controls treated with 3α-ethynyl-3β-hydroxyandrostan-17-one oxime (C+GAM, n=8 per series), hyperammonemic rats treated with vehicle (HAV, n=8 per series), hyperammonemic rats treated with 3α-ethynyl-3β-hydroxyandrostan-17-one oxime (HA+GAM, n=8 per series). […]
In the beam-walking test rats are trained to traverse an elevated, narrow beam to reach an enclosed escape platform. […] The parameters of motor coordination measured are: footslips (or foot faults) and latency to traverse the beam. […] The number of times the left or right hind paw slip off the beam was recorded for each trial.

blood ammonia = test: Blood ammonia, PCS rats (Example 12); type: in vivo, rat
Method: Male Wistar rats (220-240 g) were anesthetized with isoflurane, and an end-to side porta-caval anastomosis was performed as described by Lee and Fisher (Surgery, 1961, 50, 668-672).
Rats that were subjected to the porta-caval anastomosis procedure are herein referred to as “PCS rats”.
3α-ethynyl-3β-hydroxyandrostan-17-one oxime in sesame oil was administered by subcutaneous injections in the back of the rats, once daily. Two different sets of experiments were performed in hyperammonemic rats. In the first set four groups of rats were used: 1) control rats injected with vehicle; 2) hyperammonemic rats injected with vehicle; 3) control rats injected with 20 mg/Kg of 3α-ethynyl-3β-hydroxyandrostan-17-one oxime and 4) hyperammonemic rats injected with 20 mg/Kg of 3α-ethynyl-3β-hydroxyandrostan-17-one oxime.
For the experiments using PCS rats, the following groups of rats were used: 1) Sham rats injected with vehicle; 2) PCS rats injected with vehicle; 3-4) PCS rats injected with 0.7 or 2.5 mg/Kg of 3α-ethynyl-3β-hydroxyandrostan-17-one oxime. The number of rats used in each experiment is either shown in the corresponding Figure or given in the description of the corresponding Figure.
Blood ammonia was measured using the kit II Ammonia Arkray test (PocketChem BA, Arkray) using 20 μL of fresh blood following manufacturer's specifications.

[1] = Fraction unbound in brain homogenates by dialysis; type: in vitro ADME; conditions: rat, brain homogenate, read-out: Fraction unbound (Fub) in brain homogenates
Method: At the end of the treatment period plasma was collected from the tail vein, and after sacrifice by decapitation brains were collected and immediately frozen on dry ice. For analysis of 3α-ethynyl-3β-hydroxyandrostan-17-one oxime exposure, brain tissue was homogenized with a 1:4 ratio of tissue: PBS (pH 7.4) and then extracted with a 2-fold volume of methanol:acetonitrile (1:1), while plasma was protein-precipitated with a 3-fold volume with acetonitrile. Analyses were performed by Waters ACQUITY UPLC+Waters XEVO-TQS triple quadrupole mass spectrometer (Admescope Oy, Oulu, Finland). For calculations of the amount of free 3α-ethynyl-3β-hydroxyandrostan-17-one oxime exposure in the brain the fraction unbound (Fb) in brain homogenates were determined by dialysis, Fub in HA=[…] and Fub in PCS=1.43% (Admescope Oy, Oulu, Finland).

In the case of C#C[C@]1(O)CC[C@@]2(C)C(CC[C@@H]3[C@@H]2CC[C@]2(C)/C(=N\O)CC[C@@H]32)C1 (stereo partly drawn) [3α-ethynyl-3β-hydroxyandrostan-17-one oxime], the “Motor in-coordination in the beam-walking test (slips)” value (hyperammonemic rats) is reported as “completely reversed motor in-coordination”, the Blood ammonia (blood ammonia; 0.7 mg/Kg) is reported as 302 ± 30 µM and the Blood ammonia (blood ammonia; 2.5 mg/Kg) is reported as 294 ± 37 µM. The fraction unbound ([1]; pH 7.4, HA rats) was 0.007 and the fraction unbound ([1]; pH 7.4, PCS rats) was 0.0143.
